We go through two compounds from US12121521B2, “Uses of salt-inducible kinase (SIK) inhibitors for treating osteoporosis” (The General Hospital Corporation, priority 2016, dated 2024).

Data set [1] has as its system Ocy454 cells. Nature of the data set: Gene expression in Ocy454 cells by RT-qPCR. It counts as cell-based, mouse. For orientation: In qPCR the cycle at which signal appears reflects the starting amount.
For data set [2], the target named is T1, SIK2 (Homo sapiens, UniProt Q9H0K1).
T1 construct: T7 phage fusion (most kinases) or DNA tag after HEK-293 expression; purchased DiscoverX (Fremont, CA), ScanEDGE; host or cells: T7 phage in E. coli BL21-derived host, or HEK-293
Kind of data set: Kd determination for SIK2 (bound kinase measured by qPCR). It counts as binding. Here is the method:
FIGS. 5A to 5J: Small molecule SIK inhibitors regulate SOST and RANKL expression by osteocytes. (FIG. 5A) Structure of YKL-04-114 (top panel, left), YKL-05-093 (top panel, right), and YKL-05-093 Kd determination curves for SIK2 (bottom panels). For the Kd determination curves, the y-axis represents the amount of bound kinase measured by qPCR (see methods), and the x-axis represents the corresponding compound concentration in nM. (FIG. 5B) Ocy454 cells were treated with YKL-04-114 (10 μM) for the indicated times, followed by immunoblotting of whole cell lysates as indicated. (FIG. 5C) Ocy454 cells were treated with the indicated concentrations of YKL-04-114 for 60 minutes, followed by immunoblotting of whole cell lysates as indicated. […] Right: quantification of nuclear fraction (defined as nuclear/total) of HDAC4 or CRTC2. * indicates p<0.01 comparing treatment vs vehicle. […] Quantification of HDAC4 S246 phosphorylation, as assessed by densitometric analysis of immunoblots, is shown. * indicates p<0.01 comparing treatment vs vehicle. # indicates p<0.05 for the same comparison. […] (FIG. 5G) Control and SIK2/3 deficient cells were treated with YKL-05-093 (0.5 μM) for 4 hours and SOST transcript abundance was measured by RT-qPCR. (FIG. 5H) Control and CRTC2 shRNA cells were treated with PTH (1 nM) or YKL-05-093 (0.5 μM) for 4 hours and RANKL transcript abundance was measured by RT-qPCR. […]

The test system of data set [3] is Ocy454 cells. Nature of the data set: Immunoblotting of Ocy454 cell lysates (HDAC4/5, CRTC2, SIK2 phosphorylation and localisation). It counts as cell-based, mouse. A general note: A western blot detects proteins with antibodies after separation by electrophoresis.
Data set [4] deals with tyrosine kinase Src (Homo sapiens, UniProt P12931). The settings on record: cited from earlier work.
The nature of data set [5]: In vivo toxicity experiments (weight, CBC, serum chemistry). Details: species or system mouse. The source says: Blood was obtained for the complete blood count (CBC) measurement, and serum was obtained for the glucose, blood urea nitrogen (BUN), cholesterol, triglycerides, ALT, Creatine kinase (CK), amylase, and total protein measurements. […] “WBC” refers to “white blood cell”. “Hgb” refers to “hemoglobin”. “Pit” refers to “platelet”.

[6] abbreviates: control vs SIK2/3 deficient cells, 0.5 μM, 4 hours.
The mark [7] stands for this setting: 1 μM, 4 hours, control vs shSIK2/3 cells, FIG. 8B.

Molecules are shown by their SMILES. pKd: −log10 of the molar value.

T1 sequence (Q9H0K1 whole entry, the tested form may be a part): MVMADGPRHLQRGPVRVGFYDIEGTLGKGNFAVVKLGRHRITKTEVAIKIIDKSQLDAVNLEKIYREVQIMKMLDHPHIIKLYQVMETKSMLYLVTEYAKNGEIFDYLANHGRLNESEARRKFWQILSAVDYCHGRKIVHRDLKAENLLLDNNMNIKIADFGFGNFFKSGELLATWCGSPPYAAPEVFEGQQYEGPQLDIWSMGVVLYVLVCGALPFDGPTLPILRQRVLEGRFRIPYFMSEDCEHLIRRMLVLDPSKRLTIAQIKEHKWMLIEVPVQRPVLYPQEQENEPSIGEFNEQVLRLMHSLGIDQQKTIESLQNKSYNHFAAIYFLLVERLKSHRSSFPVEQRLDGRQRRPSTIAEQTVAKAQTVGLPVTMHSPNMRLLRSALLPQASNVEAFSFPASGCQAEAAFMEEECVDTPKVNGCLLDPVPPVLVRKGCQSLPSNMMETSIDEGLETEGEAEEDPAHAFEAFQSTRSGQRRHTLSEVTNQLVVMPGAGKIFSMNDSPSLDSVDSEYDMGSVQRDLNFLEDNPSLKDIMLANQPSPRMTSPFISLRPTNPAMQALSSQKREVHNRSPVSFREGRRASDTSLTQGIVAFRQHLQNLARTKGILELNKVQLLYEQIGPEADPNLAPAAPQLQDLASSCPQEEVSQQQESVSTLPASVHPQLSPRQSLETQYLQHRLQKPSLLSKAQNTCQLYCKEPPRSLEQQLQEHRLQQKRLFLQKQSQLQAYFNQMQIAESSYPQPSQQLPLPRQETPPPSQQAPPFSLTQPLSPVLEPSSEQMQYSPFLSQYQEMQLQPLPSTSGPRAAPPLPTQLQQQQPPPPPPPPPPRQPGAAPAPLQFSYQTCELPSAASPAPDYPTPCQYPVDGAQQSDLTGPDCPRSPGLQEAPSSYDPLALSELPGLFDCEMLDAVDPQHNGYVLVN
tyrosine kinase Src, sequence (P12931 whole entry): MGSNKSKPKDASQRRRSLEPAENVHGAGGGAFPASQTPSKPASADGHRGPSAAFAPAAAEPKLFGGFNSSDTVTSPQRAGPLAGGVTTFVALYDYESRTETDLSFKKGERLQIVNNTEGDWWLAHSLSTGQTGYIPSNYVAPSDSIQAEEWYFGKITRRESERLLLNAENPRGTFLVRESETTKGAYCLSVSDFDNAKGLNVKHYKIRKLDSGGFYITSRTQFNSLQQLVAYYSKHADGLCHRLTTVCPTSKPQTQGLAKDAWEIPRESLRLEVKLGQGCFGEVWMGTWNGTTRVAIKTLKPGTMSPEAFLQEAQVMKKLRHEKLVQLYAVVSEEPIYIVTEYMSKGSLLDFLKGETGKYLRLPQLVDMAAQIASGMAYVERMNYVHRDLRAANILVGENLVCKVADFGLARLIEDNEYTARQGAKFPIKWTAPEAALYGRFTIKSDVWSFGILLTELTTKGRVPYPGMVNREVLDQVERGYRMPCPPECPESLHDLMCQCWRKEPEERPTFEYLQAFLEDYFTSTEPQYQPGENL

The term pKd denotes −log10 of the Kd, conventionally taken in molar units. The low end stands for a high Kd, the high end for a low Kd. In the case of `COc1ccc(N2C(=O)N(c3c(C)cccc3C)Cc3cnc(Nc4ccc(C5CCN(C)CC5)c(OC)c4)nc32)c(OC)c1` [YKL-05-093], in data set [1] (FIG. 5E), the RANKL expression result is on record as “RANKL up-regulation”; the SOST expression result was “rapid and potent SOST suppression”. For the same compound, in data set [1] (Gsα-deficient Ocy454, 0.5 μM), the RANKL expression entry is reported as “RANKL up-regulation with effects similar to forskolin” and the SOST expression result is listed as “SOST suppression”. The “stimulation of RANKL expression” value in data set [1] (cells lacking CRTC2, PTH 1 nM or YKL-05-093 0.5 μM, 4 hours) was “abrogated”. Moreover, in data set [1] (setting [6]), the “genes measured with SIK2/3-dependent regulation” value is recorded as 13/19 and the “genes measured with regulation independent of the presence of SIK2/3” value is 6/19. Besides, the SOST expression result in data set [1] (osteocytes lacking SIK2 and SIK3, 0.5 μM, 4 hours) is on record as “did not decrease HDAC4 S246 phosphorylation or cause SOST suppression”. This compound also showed a pKd in data set [2] of 8.15. Further, in data set [3] (control and Gsα-deficient Ocy454 cells, 10 μM, 30 minutes), the “SIK2 S358 phosphorylation” value was “did not increase SIK2 S358 phosphorylation”. In addition, the “HDAC4 S246 phosphorylation” value in data set [3] (osteocytes lacking SIK2 and SIK3, 10 μM for 45 minutes) was “did not decrease HDAC4 S246 phosphorylation”.

Turning to `COc1ccc(N2C(=O)N(c3c(C)cccc3Cl)Cc3cnc(Nc4ccc(C5CCN(C)CC5)cc4OC)nc32)nc1` [YKL-05-099], in data set [1] (setting [7]), the RANKL expression result is listed as “RANKL up-regulation in a SIK2/3-dependent manner” and the SOST expression entry is reported as “SOST down-regulation”. Further, the “inhibition of the tyrosine kinase Src” value in data set [4] is “known to inhibit the tyrosine kinase Src”. For the same compound, in data set [3] (indicated doses, 20 minutes, FIG. 8A), the “HDAC4 S246 phosphorylation” value is given as “dose-dependent reduction in HDAC4 S246 phosphorylation”. Further, the “growth or peripheral blood counts” value in data set [5] (4 week treatment) was “Neither PTH nor YKL-05-099 altered growth or peripheral blood counts”. The weight gain entry in data set [5] (4 week treatment (weeks 20-24)) is given as “normal weight gain”. Further, the “toxicity judged from hematology data” value in data set [5] (4 week treatment, FIGS. 36A to 36D) is given as “not toxic under the test conditions”.
